Laboratory results: patent US4859468A, “Compositions and method for decomposing adipose tissue” (Senju Pharmaceutical Co., Ltd., priority 1985, dated 1989)

System: free fat cell
Test: Activity on the adrenaline's decomposing action on free fat cell (free fatty acid liberation with adrenaline)
Format: cell-based, male Wister rat
Conditions: adrenaline 0.5 μg/ml alone
Description: Eight grams of fat tissue at epididymis of male Wister rat (body weight 150-200 g) was sliced and was added into 20 ml of a Krebs-Ringer phosphoric acid buffer solution (pH 7.4) (hereinafter referred to as KRP buffer solution) containing 20 mg of glucose, 4% of bovine serum albumin and 20 mg of collagenase. The mixture was incubated at 37° C. for 50 min, and after filtration with nylon mesh, was centrifuged at 500 rpm for 30 sec; then, any portion that was not the fat cell layer was sucked out. The fat cell layer was washed twice with the KRP buffer solution and then diluted to 20 ml by addition of the KRP buffer solution. To 0.25 ml of this suspension, 0.5 ml of KRP buffer solution containing 5% of bovine serum albumin and 0.1 ml of the liquids to be tested or KRP buffer solution as control were added; these mixtures were incubated at 37° C. for 2 hr and the freed fatty acids were assayed by Dole's method (V. P. Dole, J. Clin. Invest., 35, 150 (1956)).

## CNCC(O)c1ccc(O)c(O)c1 (stereo not shown) [adrenaline]
  action of adrenaline on free fat cell (in words): free fatty acid is freed
